Experimental data: patent US8735391B2, “Synthesis of functionalized octahydro-isoquinolin-1-one-8-carboxamides, octahydro-isoquinolin-1-one-8-carboxylic esters and analogs, and therapeutic methods” (University of Kansas, priority 2008, dated 2014)
pKi: −log10 of the molar value. Where two headings read alike, the source gives them in different places.

Columns and labels:
DOR = DOR (Homo sapiens, UniProt P41143); assay: Opioid secondary binding, DOR (Table 4); settings: Opioid secondary binding activity for Formula 10 analogs
DOR, sequence (P41143 whole entry): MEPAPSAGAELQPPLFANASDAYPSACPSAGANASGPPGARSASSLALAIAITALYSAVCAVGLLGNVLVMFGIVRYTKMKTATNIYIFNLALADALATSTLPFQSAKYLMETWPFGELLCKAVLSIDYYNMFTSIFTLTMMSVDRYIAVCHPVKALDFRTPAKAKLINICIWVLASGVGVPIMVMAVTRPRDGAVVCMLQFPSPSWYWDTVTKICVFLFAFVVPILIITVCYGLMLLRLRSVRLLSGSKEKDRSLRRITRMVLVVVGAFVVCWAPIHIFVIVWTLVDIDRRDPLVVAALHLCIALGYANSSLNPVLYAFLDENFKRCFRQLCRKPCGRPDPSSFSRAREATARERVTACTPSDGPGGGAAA

KOR = KOR (Homo sapiens, UniProt P41145); assay: Opioid secondary binding, KOR (Tables 4, 5, 8, 9)
KOR, sequence (P41145 whole entry): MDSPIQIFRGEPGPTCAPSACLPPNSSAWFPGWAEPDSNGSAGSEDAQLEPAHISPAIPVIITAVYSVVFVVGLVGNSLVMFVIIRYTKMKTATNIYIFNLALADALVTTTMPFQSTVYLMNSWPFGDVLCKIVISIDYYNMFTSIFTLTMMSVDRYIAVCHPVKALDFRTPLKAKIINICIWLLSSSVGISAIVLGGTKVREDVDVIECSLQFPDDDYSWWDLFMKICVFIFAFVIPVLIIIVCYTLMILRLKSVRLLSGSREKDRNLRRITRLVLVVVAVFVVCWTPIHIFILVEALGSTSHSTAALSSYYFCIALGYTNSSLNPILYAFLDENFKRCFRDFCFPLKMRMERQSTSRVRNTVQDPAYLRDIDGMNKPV

[1] = Opioid secondary binding activity for Formula 10 analogs, read-out: KOR, Ki

Compound	pKi (KOR; [1])	other results
O=C(Nc1ccc(Cl)c(C(F)(F)F)c1)[C@@H]1CC=C[C@@H]2CN(Cc3ccccc3)C(=O)[C@@H]21 (racemic) [compound 14433]		pKi (DOR): 5.71
Cc1ccc(NC(=O)[C@@H]2CC=C[C@@H]3CCN(C4CCCCC4)C(=O)[C@@H]32)cc1Cl (racemic) [compound 11919]	6.99	
COc1ccc(NC(=O)[C@@H]2CC=C[C@@H]3CCN(Cc4ccc(Cl)cc4)C(=O)[C@@H]32)cc1 (racemic) [compound 10835]	5.29	
Cc1ccc(NC(=O)[C@@H]2CC=C[C@@H]3CCN(c4ccccc4)C(=O)[C@@H]32)cc1Cl (racemic) [compound 11925]		pKi (DOR): 7.82
O=C(Nc1ccc(Cl)cc1)[C@@H]1CC=C[C@@H]2CCN(CC3CC3)C(=O)[C@@H]21 (racemic) [compound 12092]		pKi (DOR): 5.49
O=C(Nc1ccc(C(F)(F)F)cc1Cl)[C@@H]1CC=C[C@@H]2CCN(c3ccccc3)C(=O)[C@@H]21 (racemic) [compound 11865]	6.74	
O=C(Nc1cc(F)c(F)c(F)c1)[C@@H]1CC=C[C@@H]2CCN(CC3CC3)C(=O)[C@@H]21 (racemic) [compound 12093]		pKi (DOR): 5.36
O=C(NCc1ccc(Cl)c(C(F)(F)F)c1)[C@@H]1CC=C[C@@H]2CCN(C3CCCCC3)C(=O)[C@@H]21 (racemic) [compound 11856]	6.27	
O=C(Nc1ccc(Cl)c(C(F)(F)F)c1)[C@@H]1CC=C[C@@H]2CCN(CC3CC3)C(=O)[C@@H]21 (racemic) [compound 12156]		pKi (DOR): 6.10
O=C(O)C(Cc1ccccc1)NC(=O)C1CC=CC2CCN(Cc3ccccc3)C(=O)C21 (mixture of isomers) [compound 11902]	5.47	
O=C(Nc1cnccn1)[C@@H]1CC=C[C@@H]2CCN(CC3CCCCC3)C(=O)[C@@H]21 (racemic) [compound 12138]		pKi (DOR): 5.78
O=C(Nc1ccc(F)c(F)c1)[C@@H]1CC=C[C@@H]2CCN(c3ccccc3)C(=O)[C@@H]21 (racemic) [compound 10823]	6.43	
CC(C)N1CCC2C=CCC(C(=O)Nc3ccc(F)c(F)c3)C2C1=O (racemic) [compound 10847]	5.38	
NC(=O)c1ccccc1NC(=O)[C@@H]1CC=C[C@@H]2CCN(Cc3ccccc3)C(=O)[C@@H]21 (racemic) [compound 12123]		pKi (DOR): 5.23
O=C(Nc1ccc(I)cc1)[C@@H]1CC=C[C@@H]2CCN(c3ccccc3)C(=O)[C@@H]21 (racemic) [compound 11948]		pKi (DOR): 7.08
CC(C)N1CCC2C=CCC(C(=O)Nc3ccc(Cl)c(C(F)(F)F)c3)C2C1=O (racemic) [compound 10849]	6.58	
O=C(NC1CCCCC1)[C@@H]1CC=C[C@@H]2CCCN(C3CCCCC3)C(=O)[C@@H]21 (racemic) [compound 14424]		pKi (DOR): 5.77
CN(C(=O)[C@@H]1CC=C[C@@H]2CCN(CC3CCCCC3)C(=O)[C@@H]21)c1ccccc1 (racemic) [compound 12113]		pKi (DOR): 5.55
O=C(Nc1ccc([N+](=O)[O-])cc1)[C@@H]1CC=C[C@@H]2CCN(c3ccccc3)C(=O)[C@@H]21 (racemic) [compound 11947]		pKi (DOR): 6.85
O=C(Nc1ccccc1)[C@@H]1CC=C[C@@H]2CCN(Cc3ccccc3)C(=O)[C@@H]21 [compound 11793]	5.79	
O=C(Nc1ccc([N+](=O)[O-])c(C(F)(F)F)c1)[C@@H]1CC=C[C@@H]2CCN(C3CCCCC3)C(=O)[C@@H]21 (racemic) [compound 11920]	5.29	
O=C(Nc1ccc(Cl)cc1Cl)[C@@H]1CC=C[C@@H]2CCN(CCc3ccccc3)C(=O)[C@@H]21 (racemic) [compound 10834]	5.19	

Compound	pKi (KOR; [1])	other results
O=C(Nc1ccccc1)[C@@H]1CC=C[C@@H]2CCN(CC3CCCCC3)C(=O)[C@@H]21 (racemic) [compound 11887]	6.73	
O=C(NCc1ccc(Cl)c(Cl)c1)[C@@H]1CC=C[C@@H]2CCN(c3ccccc3)C(=O)[C@@H]21 (racemic) [compound 12142]		pKi (DOR): 6.99
O=C(Nc1ccc(Cl)cc1C(F)(F)F)[C@@H]1CC=C[C@@H]2CCN(C3CCCCC3)C(=O)[C@@H]21 (racemic) [compound 11858]	6.06	
CN(C)C(=O)[C@@H]1CC=C[C@@H]2CCN(C3CCCCC3)C(=O)[C@@H]21 (racemic) [compound 12086]		pKi (DOR): < 5.00
O=C(Nc1cccc(Cl)c1)[C@@H]1CC=C[C@@H]2CCCN(C3CCCCC3)C(=O)[C@@H]21 (racemic) [compound 14425]		pKi (DOR): 5.22
CC(c1ccccc1)N1CCC2C=CCC(C(=O)Nc3cccc(Cl)c3)C2C1=O (mixture of isomers) [compound 12165]		pKi (DOR): 5.92
Cc1cc(NC(=O)[C@@H]2CC=C[C@@H]3CCN(C4CCCCC4)C(=O)[C@@H]32)ccc1Cl (racemic) [compound 11860]	6.15	
CC(C)N1CCC2C=CCC(C(=O)Nc3cccc(C(F)(F)F)c3)C2C1=O (racemic) [compound 10846]	6.21	
CCOC(=O)CCC(NC(=O)C1CC=CC2CCN(C3CCCCC3)C(=O)C21)C(=O)OCC (mixture of isomers) [compound 11821]	5.33	
O=C(Nc1cccc(Cl)c1)[C@@H]1CC=C[C@@H]2CCN(c3ccccc3)C(=O)[C@@H]21 (racemic) [compound 10821]	6.38	
O=C(Nc1ccc(Cl)c(C(F)(F)F)c1)C1CCCC2CCN(C3CCCCC3)C(=O)C21 (racemic) [compound 11479]	6.10	
CC(NC(=O)C1CC=CC2CCN(C3CCCCC3)C(=O)C21)c1ccccc1 (mixture of isomers) [compound 11836]	6.22	
COC(=O)C(C)NC(=O)C1CC=CC2CCN(Cc3ccccc3)C(=O)C21 (mixture of isomers) [compound 11818]	5.21	
O=C(Nc1ccc(F)c(F)c1)[C@@H]1CC=C[C@@H]2CCN(CC3CCCCC3)C(=O)[C@@H]21 (racemic) [compound 11889]	6.88	
COC(=O)C(CCSC)NC(=O)C1CC=CC2CCN(Cc3ccccc3)C(=O)C21 (mixture of isomers) [compound 11816]	5.58	
O=C(Nc1ccc(C(F)(F)F)cc1)[C@@H]1CC=C[C@@H]2CCN(c3ccccc3)C(=O)[C@@H]21 (racemic) [compound 10822]	6.10	
O=C(Nc1ccc(Cl)cc1Cl)[C@@H]1CC=C[C@@H]2CCN(c3ccccc3)C(=O)[C@@H]21 (racemic) [compound 10826]	6.54	
O=C(NCc1ccccc1)[C@@H]1CC=C[C@@H]2CCN(C3CCCCC3)C(=O)[C@@H]21 (racemic) [compound 11918]	6.45	
O=C(Nc1ccc(Br)c(C(F)(F)F)c1)[C@@H]1CC=C[C@@H]2CCN(C3CCCCC3)C(=O)[C@@H]21 (racemic) [compound 11857]	6.09	
O=C(OCc1ccccc1)C(Cc1ccccc1)NC(=O)C1CC=CC2CCN(C3CCCCC3)C(=O)C21 (mixture of isomers) [compound 11825]	5.96	
O=C(Nc1cccc(Cl)c1)[C@@H]1CC=C[C@@H]2CCN(Cc3ccc(Cl)cc3)C(=O)[C@@H]21 (racemic) [compound 10836]	6.65	
O=C(NC1CCCCC1)[C@@H]1CC=C[C@@H]2CCN(Cc3ccccc3)C(=O)[C@@H]21 [compound 11791]		pKi (KOR): 5.89

Compound	pKi (KOR; [1])	other results
COc1cccc(F)c1CN1CC[C@H]2C=CC[C@@H](C(=O)Nc3ccc(C)c(F)c3F)[C@H]2C1=O (racemic) [compound 13485]	5.29	
O=C(NC1CCCCC1)[C@@H]1CC=C[C@@H]2CCN(CC3CCCCC3)C(=O)[C@@H]21 (racemic) [compound 11886]	6.75	
O=C(Nc1ccc(Cl)c(C(F)(F)F)c1)C1CC=CC2CCN(Cc3ccc(Cl)cc3)C(=O)C21 (racemic) [compound 10841]	6.33	
O=C(Nc1ccc(C(F)(F)F)cc1Cl)[C@@H]1CC=C[C@@H]2CCN(CCc3ccccc3)C(=O)[C@@H]21 (racemic) [compound 11877]	5.48	
O=C1NCC[C@H]2C=CC[C@@H](C(=O)Nc3ccc(Cl)c(C(F)(F)F)c3)[C@@H]12 (racemic) [compound 11896]	6.14	
O=C(Nc1c(F)c(F)c(F)c(F)c1F)[C@@H]1CC=C[C@@H]2CCN(Cc3ccccc3)C(=O)[C@@H]21 (racemic) [compound 14309]	5.53	
O=C(OCc1ccccc1)C(Cc1ccccc1)NC(=O)C1CC=CC2CCN(CCc3ccccc3)C(=O)C21 (mixture of isomers) [compound 11831]	5.82	
CC(C)N1CCC2C=CCC(C(=O)Nc3cccc(Cl)c3)C2C1=O (racemic) [compound 10844]	5.67	
CC(C)N1CCC2C=CCC(C(=O)Nc3ccc(Cl)cc3Cl)C2C1=O (racemic) [compound 10850]	5.62	
O=C(Nc1ccc(F)cc1)[C@@H]1CC=C[C@@H]2CCN(Cc3ccccc3)C(=O)[C@@H]21 (racemic) [compound 11909]	6.56	
O=C(Nc1ccc(Cl)c(C(F)(F)F)c1)[C@@H]1CC=C[C@@H]2CCN(CC3CCCCC3)C(=O)[C@@H]21 (racemic) [compound 11890]	6.08	
CC(NC(=O)C1CC=CC2CCN(CCc3ccccc3)C(=O)C21)c1ccccc1 (mixture of isomers) [compound 11848]	5.46	
O=C(Nc1ccc(F)c(F)c1)C1CC=CC2CCN(Cc3ccc(Cl)cc3)C(=O)C21 (racemic) [compound 10839]	6.19	
O=C(Nc1cccc(C(F)(F)F)c1)C1CC=CC2CCN(Cc3ccc(Cl)cc3)C(=O)C21 (racemic) [compound 10838]	5.82	
O=C(OCc1ccccc1)C1CCCN1C(=O)C1CC=CC2CCN(Cc3ccc(Cl)cc3)C(=O)C21 (mixture of isomers) [compound 11808]	5.64	
O=C(OCc1ccccc1)C(Cc1ccccc1)NC(=O)C1CC=CC2CCN(Cc3ccccc3)C(=O)C21 (mixture of isomers) [compound 11819]	5.89	
O=C(Nc1ccc(C(F)(F)F)cc1)C1CC=CC2CCN(Cc3ccc(Cl)cc3)C(=O)C21 (racemic) [compound 10837]	5.60	
COC(=O)C(CCSC)NC(=O)C1CC=CC2CCN(C3CCCCC3)C(=O)C21 (mixture of isomers) [compound 11822]	5.35	
O=C(Nc1c(F)cccc1F)[C@@H]1CC=C[C@@H]2CCN(c3ccccc3)C(=O)[C@@H]21 (racemic) [compound 10824]	5.30	
CC(NC(=O)C1CC=CC2CCN(Cc3ccccc3)C(=O)C21)c1ccccc1 (mixture of isomers) [compound 11854]	6.15	
